{"source": "patent US20130280388A1", "about": "“Solid Food Products and Methods of Their Preservation” (priority 2012, published 2013)", "key": {"Salmonellae [1]": {"tested_on": "Salmonellae", "test": "Salmonellae log reduction in pot pie filling by 4-HBITC only (frozen filling thawed to room temperature, plate count)", "format": "cell-based", "description": "(§1) Pot pie fillings made up of both Salmonellae inoculated particulates and gravy carrying the 4-hydroxybenzyl isothiocyanate (4-HBITC) in white mustard essential oil (WMEO), is used to evaluate the effect of 4-HBITC in a heterogeneous food system. Standing overnight cultures of five strains of Salmonellae are used to inoculate, at two different levels, mixtures of frozen vegetable and chicken particulates containing about 62% chicken, 17% carrot, 15% potato and 2% peas, as described in Example 2, all by weight of the total particulate mixture. The high level contains about 6 log colony forming units (cfu)/gm while the medium level contains about 3 log cfu/gm of Salmonellae. Bags containing the inoculated cultures and the particulates are gently inverted and rolled to ensure uniform coating of the particulates and the inoculated particles are then stored at −28° C. for 24 hours before being mixed with sauce containing white mustard essential oil (WMEO).\n(§2) Sauce as made in Example 2 is used as the vehicle for WMEO. From a 2.4% 4-HBITC in WMEO stock solution in peanut oil made as described in Example 1, accurate amounts are weighed out such that 400 g of the pie filling comprising 36% of the particulates and 64% of the gravy will have 750, 562.5 or 250 ppm, 4-HBITC when mixed together. The particulates and the sauce are first put together in a sterile bowl and the WMEO in peanut oil added to the mixture and mixed gently for about 1 minute. The control (0 ppm 4-HBITC samples have only the vegetable oil added to them before mixing. The completed pie fillings are then immediately frozen at −28° C. for 48 hours before the second stage of the experiment.\n(§3) To enumerate the accurate Salmonellae count prior to freezing, a sample is removed from each of the mixed pie fillings, including the control, and diluted at a ratio of 1:10 with Butterfields buffer and homogenized using a stomacher. The homogenized and diluted sample is suitably diluted further to obtain the appropriate number of bacterial colonies per plate and plated in triplicate on trypticase soy agar with yeast extract and allowed to stabilize for 30-60 minutes. The plates are then over-laid with xyline-lysine-deoxycholate (XLD) agar to resuscitate and recover injured cells and incubated at 35° C. for 48 hours before counting the colonies.\n(§4) In the second stage of the experiment, the frozen pie fillings are cooked in 700 W or 1100 W microwave ovens. During cooking, samples are removed from the pie fillings at 15, 45, 60, 90 120, 180 and 240 seconds. At each of these time points, the surviving microbial counts are enumerated by removing discrete 25 g samples and plating them in the manner described above. To determine the effect of 4-HBITC only, each of the treatments and the control is thawed to room temperature and triplicate samples are used to enumerate the surviving microorganisms as detailed above.\n(§5) The microbial reductions resulting from the treatments is attributed to the simultaneous action of microwave heating and 4-HBITC while microbial reductions occurring in the 0 ppm 4-HBITC containing control sample is attributed to microwave heating only. If the reduction in microbial counts due to the simultaneous action of 4-HBITC and microwave heating is greater than the sum of the individual reductions in microbial counts due to 4-HBITC and microwave heating, a synergistic effect is considered to be present (YES). If the reduction in microbial counts due to the simultaneous action of 4-HBITC and microwave heating is equal to or less than the sum of the individual reductions in microbial counts due to 4-HBITC and due to microwave heating, a synergistic effect is considered to be absent (NO)."}, "Salmonellae [2]": {"tested_on": "Salmonellae", "test": "Salmonellae log reduction in frozen pot pie filling containing 4-HBITC cooked in a microwave oven (plate count)", "format": "cell-based", "parameters": "key to Synergistic effect Yes/No: Yes: reduction in microbial counts due to the simultaneous action of 4-HBITC and microwave heating is greater than the sum of the individual reductions in microbial counts due to 4-HBITC and microwave heating, a synergistic effect is considered to be present (YES); No: reduction in microbial counts due to the simultaneous action of 4-HBITC and microwave heating is equal to or less than the sum of the individual reductions in microbial counts due to 4-HBITC and due to microwave heating, a synergistic effect is considered to be absent (NO)", "details": "for Synergistic effect Yes/No: 180 sec", "description": "as §1, §2, §3, §4, §5"}, "[3]": {"details": "250 ppm 4-HBITC, inoc. level H, MW power 700 Watts"}, "[4]": {"details": "250 ppm 4-HBITC, inoc. level H, MW power 1100 Watts"}, "[5]": {"details": "250 ppm 4-HBITC, inoc. level M, MW power 700 Watts"}, "[6]": {"details": "250 ppm 4-HBITC, inoc. level M, MW power 1100 Watts"}, "[7]": {"details": "562.5 ppm 4-HBITC, inoc. level H, MW power 700 Watts"}, "[8]": {"details": "562.5 ppm 4-HBITC, inoc. level H, MW power 1100 Watts"}, "[9]": {"details": "562.5 ppm 4-HBITC, inoc. level M, MW power 700 Watts"}, "[10]": {"details": "562.5 ppm 4-HBITC, inoc. level M, MW power 1100 Watts"}, "[11]": {"details": "750 ppm 4-HBITC, inoc. level H, MW power 700 Watts"}, "[12]": {"details": "750 ppm 4-HBITC, inoc. level H, MW power 1100 Watts"}, "[13]": {"details": "750 ppm 4-HBITC, inoc. level M, MW power 700 Watts"}, "[14]": {"details": "750 ppm 4-HBITC, inoc. level M, MW power 1100 Watts"}}}
{"compound": "Oc1ccc(CN=C=S)cc1", "note": "[4-HBITC, 4-hydroxybenzyl isothiocyanate]", "values": [{"measurement": "log reductions (180 sec) due to 4-HBITC only", "setting": "Salmonellae [1]; [3]", "value": 0.74, "unit": "log"}, {"measurement": "log reductions (180 sec) due to 4-HBITC only", "setting": "Salmonellae [1]; [4]", "value": 1.05, "unit": "log"}, {"measurement": "log reductions (180 sec) due to 4-HBITC only", "setting": "Salmonellae [1]; [5]", "value": 1.15, "unit": "log"}, {"measurement": "log reductions (180 sec) due to 4-HBITC only", "setting": "Salmonellae [1]; [6]", "value": 1.1, "unit": "log"}, {"measurement": "log reductions (180 sec) due to 4-HBITC only", "setting": "Salmonellae [1]; [7]", "value": 1.59, "unit": "log"}, {"measurement": "log reductions (180 sec) due to 4-HBITC only", "setting": "Salmonellae [1]; [8]", "value": 1.59, "unit": "log"}, {"measurement": "log reductions (180 sec) due to 4-HBITC only", "setting": "Salmonellae [1]; [9]", "value": 2.4, "unit": "log"}, {"measurement": "log reductions (180 sec) due to 4-HBITC only", "setting": "Salmonellae [1]; [10]", "value": 2.4, "unit": "log"}, {"measurement": "log reductions (180 sec) due to 4-HBITC only", "setting": "Salmonellae [1]; [11]", "value": 2.03, "unit": "log"}, {"measurement": "log reductions (180 sec) due to 4-HBITC only", "setting": "Salmonellae [1]; [12]", "value": 2.14, "unit": "log"}, {"measurement": "log reductions (180 sec) due to 4-HBITC only", "setting": "Salmonellae [1]; [13]", "value": 2.4, "unit": "log"}, {"measurement": "log reductions (180 sec) due to 4-HBITC only", "setting": "Salmonellae [1]; [14]", "value": 2.64, "unit": "log"}, {"measurement": "log reductions (180 sec) due to Simultaneous action of 4-HBITC & heat", "setting": "Salmonellae [2]; [3]", "value": 1.11, "unit": "log"}, {"measurement": "Synergistic effect Yes/No", "setting": "Salmonellae [2]; [3]", "value": "No"}, {"measurement": "log reductions (180 sec) due to Simultaneous action of 4-HBITC & heat", "setting": "Salmonellae [2]; [4]", "value": 1.63, "unit": "log"}, {"measurement": "Synergistic effect Yes/No", "setting": "Salmonellae [2]; [4]", "value": "Yes"}, {"measurement": "log reductions (180 sec) due to Simultaneous action of 4-HBITC & heat", "setting": "Salmonellae [2]; [5]", "value": 1.42, "unit": "log"}, {"measurement": "Synergistic effect Yes/No", "setting": "Salmonellae [2]; [5]", "value": "No"}, {"measurement": "log reductions (180 sec) due to Simultaneous action of 4-HBITC & heat", "setting": "Salmonellae [2]; [6]", "value": 1.38, "unit": "log"}, {"measurement": "Synergistic effect Yes/No", "setting": "Salmonellae [2]; [6]", "value": "No"}, {"measurement": "log reductions (180 sec) due to Simultaneous action of 4-HBITC & heat", "setting": "Salmonellae [2]; [7]", "value": 2.97, "unit": "log"}, {"measurement": "Synergistic effect Yes/No", "setting": "Salmonellae [2]; [7]", "value": "Yes"}, {"measurement": "log reductions (180 sec) due to Simultaneous action of 4-HBITC & heat", "setting": "Salmonellae [2]; [8]", "value": 5.25, "unit": "log"}, {"measurement": "Synergistic effect Yes/No", "setting": "Salmonellae [2]; [8]", "value": "Yes"}, {"measurement": "log reductions (180 sec) due to Simultaneous action of 4-HBITC & heat", "setting": "Salmonellae [2]; [9]", "value": 4.38, "unit": "log"}, {"measurement": "Synergistic effect Yes/No", "setting": "Salmonellae [2]; [9]", "value": "Yes"}, {"measurement": "log reductions (180 sec) due to Simultaneous action of 4-HBITC & heat", "setting": "Salmonellae [2]; [10]", "value": 4.38, "unit": "log"}, {"measurement": "Synergistic effect Yes/No", "setting": "Salmonellae [2]; [10]", "value": "Yes"}, {"measurement": "log reductions (180 sec) due to Simultaneous action of 4-HBITC & heat", "setting": "Salmonellae [2]; [11]", "value": 5.25, "unit": "log"}, {"measurement": "Synergistic effect Yes/No", "setting": "Salmonellae [2]; [11]", "value": "Yes"}, {"measurement": "log reductions (180 sec) due to Simultaneous action of 4-HBITC & heat", "setting": "Salmonellae [2]; [12]", "value": 1.56, "unit": "log"}, {"measurement": "Synergistic effect Yes/No", "setting": "Salmonellae [2]; [12]", "value": "No"}, {"measurement": "log reductions (180 sec) due to Simultaneous action of 4-HBITC & heat", "setting": "Salmonellae [2]; [13]", "value": 4.38, "unit": "log"}, {"measurement": "Synergistic effect Yes/No", "setting": "Salmonellae [2]; [13]", "value": "Yes"}, {"measurement": "log reductions (180 sec) due to Simultaneous action of 4-HBITC & heat", "setting": "Salmonellae [2]; [14]", "value": 4.38, "unit": "log"}, {"measurement": "Synergistic effect Yes/No", "setting": "Salmonellae [2]; [14]", "value": "Yes"}]}
